Experimental data published in PMC11157767 (Molecular Cancer, 2024).

Test system: TFG-MET allograft tumors
Experiment: RNA-sequencing, differential expression and GSEA of TFG-MET allograft tumors
Assay type: in vivo, mouse
Conditions: RNA-sequencing of treated allograft tumors
Description: Error bars display standard error of mean, statistical significance was determined using t-test analysis. (****;p<0.0001, ***;p<0.001, **;p<0.01, *;p<0.05). […] Each dot represents an individual replicate. Error bars display standard error of the mean.
Each dot represents one gene.

Structure (SMILES): C[C@@H](Oc1cc(-c2cnn(C3CCNCC3)c2)cnc1N)c1c(Cl)ccc(F)c1Cl [Crizotinib]
- expression of Mapk signature genes in tumors: more heterogenous expression
